Measured values reported in PubChem BioAssay (NCI).
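Five concentrations, 48 hours, 96-well plates. TGI is the concentration that stops growth completely.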

Key:
Assay in all cases: NCI-60 cell line screen, 48 h
OVCAR-3 ovarian = system: OVCAR-3 ovarian
HS 578T breast = system: HS 578T breast
HOP-62 NSCLC = system: HOP-62 NSCLC
SR leukemia = system: SR leukemia
UO-31 renal = system: UO-31 renal
MCF7 breast = system: MCF7 breast
A498 renal = system: A498 renal
HCC-2998 colon = system: HCC-2998 colon
T-47D breast = system: T-47D breast
SNB-75 CNS = system: SNB-75 CNS
COLO 205 colon = system: COLO 205 colon
HOP-92 NSCLC = system: HOP-92 NSCLC
U251 CNS = system: U251 CNS
NCI-H460 lung = system: NCI-H460 lung
CCRF-CEM leukemia = system: CCRF-CEM leukemia
M14 melanoma = system: M14 melanoma
RPMI-8226 leukemia = system: RPMI-8226 leukemia
SF-539 CNS = system: SF-539 CNS
DU-145 prostate = system: DU-145 prostate
EKVX NSCLC = system: EKVX NSCLC
SK-MEL-2 melanoma = system: SK-MEL-2 melanoma
LOX IMVI melanoma = system: LOX IMVI melanoma
UACC-62 melanoma = system: UACC-62 melanoma
A549 NSCLC = system: A549 NSCLC
SK-MEL-5 melanoma = system: SK-MEL-5 melanoma
MDA-MB-231 breast = system: MDA-MB-231 breast
NCI-H226 lung = system: NCI-H226 lung
HCT-15 colon = system: HCT-15 colon
HL-60(TB) leukemia = system: HL-60(TB) leukemia
SN12C renal = system: SN12C renal
TK-10 renal = system: TK-10 renal
HT29 colon = system: HT29 colon
OVCAR-5 ovarian = system: OVCAR-5 ovarian
786-0 renal = system: 786-0 renal
SF-295 CNS = system: SF-295 CNS
NCI-H522 lung = system: NCI-H522 lung
PC-3 prostate = system: PC-3 prostate
SW-620 colon = system: SW-620 colon
ACHN renal = system: ACHN renal
MDA-MB-435 = system: MDA-MB-435
SK-OV-3 ovarian = system: SK-OV-3 ovarian
HCT-116 colon = system: HCT-116 colon
RXF 393 renal = system: RXF 393 renal
MOLT-4 leukemia = system: MOLT-4 leukemia
MDA-N = system: MDA-N
NCI-H23 lung = system: NCI-H23 lung
K-562 leukemia = system: K-562 leukemia
CAKI-1 renal = system: CAKI-1 renal
SF-268 CNS = system: SF-268 CNS
BT-549 breast = system: BT-549 breast
UACC-257 melanoma = system: UACC-257 melanoma
OVCAR-8 ovarian = system: OVCAR-8 ovarian
KM12 colon = system: KM12 colon
SK-MEL-28 melanoma = system: SK-MEL-28 melanoma
SNB-19 CNS = system: SNB-19 CNS
OVCAR-4 ovarian = system: OVCAR-4 ovarian
NCI/ADR-RES ovarian = system: NCI/ADR-RES ovarian

Measured: TGI

COc1cc(/C=C/C(=O)N[C@@H]2C(=O)N3[C@@H]2SC(C)(C)[C@@H]3C(=O)O)ccc1O
> 100 µM: all assays above
